{"source": "patent US20240009269A1", "about": "(priority 2020, published 2024)", "key": {"[1]": {"tested_on": "mouse brain (blood-brain barrier)", "conditions": "mouse, in vivo", "from_the_text": "Briefly, male C57BL/6J mice (n=43, 6-8 weeks old, 20-25 g, Jackson Laboratory) were anesthetized with 2% isoflurane. The common carotid artery (CCA) bifurcation was exposed and the occipital artery branching off from the external carotid artery (ECA) was coagulated. The ECA and the pterygopalatine artery (PPA) were temporarily ligated with 4-0 silk sutures. A temporary ligature using a 4-0 suture was placed on the carotid bifurcation and the proximal CCA was permanently ligated. A microcatheter (PE-8-100, SAI Infusion Technologies) was flushed with 2% heparin (1,000 U mL^−1, heparin sodium, Upjohn), inserted into the CCA via a small arteriotomy, and advanced into the internal carotid artery (ICA).\nFor each animal, 150 μL of solution was infused at a rate of 150 μL minute^−1. […] The brains were harvested immediately after Evans Blue injection, sectioned in brain slicer matrix (Zivic Instruments) to produce 1 mm slabs.\nAnimal anesthesia was maintained at 1.5-2% during the MRI scan. Mice were placed on a water-heated animal bed equipped with temperature and respiratory control. Respiration was monitored and maintained at 30-60 minutes^−1. All MRI experiments were performed on a Bruker 11.7T MRI scanner. Baseline T2 (TR/TE=2,500/30 ms), susceptibility-weighted imaging (SWI) (TR/TE=378/8 ms), T1 (TR/TE 350/6.7 ms)-weighted, dynamic gradient echo echo-planar imaging (GE-EPI, TR/TE 1250/9.7 ms, field of view (FOV)=14×14 mm, matrix=128×128, acquisition time=60 s and 24 repetitions) and dynamic T1 imaging (TR/TE 2000/3. 5ms, field of view=14×14 mm, acquisition time=8 seconds and 20 repetitions) images of the brain were acquired. The microcatheter was connected to a syringe mounted on an MRI compatible programmable syringe pump (PHD 2000, Harvard Apparatus Inc.). Gadolinium (Gd; Prohance) dissolved in saline at 1:50 was infused intra-arterially at the rate of 150 μL minute^−1 under dynamic GE-EPI MRI for visualization of perfusion territory. […] To quantify BBB status, T1 intensities in cortex, hippocampus and thalamus/hypothalamus were compared between ipsilateral and contralateral hemispheres. T1 hyperintensity was corrected for possible asymmetry using pre-contrast T1 images and normalized as the ratio of ipsilateral to contralateral intensity. Additionally, the area of BBBO (mm^2) was calculated by conversion of T1 images to binary using the Auto Threshold function (plugin v1.17; Maximum Entropy method) [Kapur, J. N., P. K. Sahoo, and A. K. C. Wong, Computer Vision, Graphics, and Image Processing, 1985, 29(3): p. 273-285] in ImageJ. T2-weighted and SWI images were acquired at the same timepoints for detection of brain damage and microhemorrhage. Subsequently, animals were sacrificed for further histological assessment.\nTo determine the area and region of perfusion territory, we first calculated the contrast enhancement maps at the time where contrast enhancement was at its maximum. As Gd causes negative contrast under T2 imaging, we calculated the contrast enhancement as (SIpre-SIpost)/SIpre, where SI is the signal intensity of an MR image. Histogram was plotted for all pixels in the brain region in a contrast enhancement map and further fitted into two Gaussian distributions, assuming there were two dominant populations for non-contrast enhanced and contrast-enhanced pixels, respectively. The cutoff value to separate the two populations was then determined. The fraction of contrast enhanced areas was calculated by the ratio of the number of pixels, whose values are larger than the cutoff value, to the total number of pixels in the brain. A similar method was used to determine the BBBO territory."}, "[2]": {"tested_on": "blood-brain barrier", "conditions": "cited from earlier work"}, "[3]": {"conditions": "cited from earlier work"}, "[4]": {"tested_on": "tissue-engineered dhBMECs microvessels", "assay": "BBB opening in tissue-engineered BBB microvessels (500 kDa dextran leakage)", "assay_type": "cell-based, human", "procedure": "Three-dimensional blood-brain barrier microvessels were fabricated as previously reported (FIGS. 10A and 10B) [Linville, R. M., et al., Biomaterials, 2019. 190-191: p. 24-37] 150 μm diameter and 1 cm long channels were patterned in 7 mg mL^−1 type I collagen (Corning) using nitinol wire (Malin Co.) housed within polydimethylsiloxane (PDMS; Dow Corning). Channels were cross-linked by incubation in 20 mM genipin (Wako Biosciences) for 2 hours to increase cell adhesion. 2dhBMECs were suspended in BBB induction medium at a concentration of 5×10^6 cells mL^−1 and seeded into channels. Microvessels were perfused using BBB induction medium for 24 hours and then switched to BBB maintenance medium. During cell seeding and the first day of perfusion, 10 μM ROCK inhibitor Y27632 (ATCC) was supplemented to increase adhesion. An average shear stress of ˜2 dyn cm^−2 was maintained with a reservoir height difference (Δh) of 3 cm, corresponding to a volumetric flow rate of ˜250 μL h^−1 (FIG. 11D). This shear stress was estimated from the Poiseuille equation: τ=μQ)/2πd3 where μ is the media dynamic viscosity, Q is the volumetric flow rate, and d is the microvessel diameter.\nLive-cell imaging was conducted to study dynamic changes in in vitro BBB permeability and microvessel structure. Microvessels were imaged using a 10×objective equipped on an inverted microscope (Nikon Eclipse TiE) maintained at 37° C. and 5% CO2 (FIG. S2C). Epifluorescence illumination was provided by an X-Cite 120LEDBoost (Excelitas Technologies). Phase contrast and fluorescence images were acquired every two minutes with the focal plane set to the microvessel midplane. The entire image collected consists of ten adjacent imaging frames. […] A dextran solute panel comprised of 200 μM Cascade Blue-conjugated 3 kDa dextran (Cat. No. D7132. Thermo Fisher Scientific), 16 μM Alexa Fluor647-conjugated 10 kDa dextran (Cat. No. D22914, Thermo Fisher Scientific), and 1.2 μM fluorescein-conjugated 500 kDa dextran (Cat. No. D7136, Thermo Fisher Scientific) was prepared in BBB maintenance medium. Fluorophores were independently excited and the respective emissions were collected using: Nikon UV-2E/C for 3 kDa dextran (50 ms exposure), Chroma 41008 for 10 kDa dextran (20 ms exposure), and Nikon B-2E/C for 500 kDa dextran (50 ms exposure).\nImage processing was performed using ImageJ (NIH) to quantify BBB opening (FIGS. 11A-11D). First, images were cropped to a standard size of 6 mm×0.6 mm. To determine the spatial heterogeneity of BBB permeability, microvessels were sectioned into 10 regions of interest (ROIs), each a 0.6 mm×0.6 mm square (FIG. 11A). For each ROI, the integrated pixel density was plotted over time (FIG. 11A). The permeability (cm s^−1) was calculated using P=(r/2)(1/ΔI)(dI/dt), where r is the vessel radius, ΔI is the increase in fluorescence intensity upon perfusion of the fluorophore, and (dI/dt) is the rate of increase in fluorescence intensity as solute exits into the gel. […] To visually display permeability dynamics, heatmaps were generated from 90 instantaneous permeability values across the 10 ROIs (x-axis) and nine 10-minute periods (y-axis). […] 28(1): p. 41-51 in ImageJ (FIG. 11B). Under baseline conditions, thresholding results in the lumen designated as white (1) and extracellular matrix (ECM) as black (0). […] From binarized images, individual focal leaks were manually counted over time. Leaks emerging from the sides of the image frame were not counted. To quantify the duration of a BBB opening effect, we identified the time at which the last focal leak appeared and termed the focal leak reversibility time constant (τfocal leaks)."}, "[5]": {"conditions": "25, 50, and 100 μM·minute doses"}}, "note": "No end group written: not given here."}
{"compound": "OC[C@@H](O)[C@@H](O)[C@H](O)[C@H](O)CO", "note": "[mannitol]", "values": [{"measurement": "extent of BBBO compared with 3 μM·minute melittin", "setting": "[1]", "value": "similar"}, {"measurement": "concentration above which BBBO is induced", "setting": "[2]", "value": "> 1.1", "unit": "M"}, {"measurement": "solubility limit", "setting": "[3]", "value": "around 1.4 M"}]}
{"compound": "RVGALKQTAIPVKSLIWGRQLIGLKT-NH2 [Mel-Scramble, reference compound]", "values": [{"measurement": "BBBO", "setting": "[4]; [5]", "value": "did not induce BBBO"}, {"measurement": "change in the permeability of 500 kDa dextran following perfusion", "setting": "[4]; [5]", "value": "no change"}, {"measurement": "focal leaks during or 24 hours after perfusion", "setting": "[4]; [5]", "value": "no focal leaks were observed"}]}
{"compound": "GIGAVLKVLTTGLPALISWIKRKRQQ-NH2 [melittin-CONH2]", "values": [{"measurement": "slope of focal leak reversibility versus dose", "setting": "[4]; compared across four variants", "value": "highest slope"}]}
